The subject of this experiment is 855422-203-R-J1-PDC complex spheroids, viability. As to the kind of experiment: Anticancer human tumor 855422-203-R-J1-PDC patient-derived bladder carcinoma cell line growth inhibition [CLK]. The conditions noted are these: for viability, T/C: stronger effect = lower value; for IC50: compound alone. The source says:
A high-throughput screen of multi-cell type tumor spheroids was designed to identify active combinations of […] and targeted small molecules. Complex spheroids include a stromal component modeled by human endothelial cells (HUVEC) and fibroblasts modeled by human mesenchymal stem cells (MSCs). The concentration ranges selected for each drug and investigational agent were based upon clinically achievable concentrations if the clinical Cmax of the agent was known.
Compounds. The drugs and investigational agents: cirtuvivint (SM08502; NSC835563), CC-671 (NSC850746), vemurafenib (NSC761431), tapotoclax (NSC804041), sotorasib (NSC818433), adagrasib (NSC831453), MRTX-1133 (NSC836407), BAY2416964 (NSC825713), copanlisib (NSC816437), inavolisib (NSC800729), abemaciclib (NSC768073), osimertinib (NSC779217), entinostat (NSC756642), eltanexor (KPT-8602, NSC794443), venetoclax (NSC766270), ceralasertib (NSC777638), bortezomib (NSC756655), olaparib (NSC753686), talazoparib (NSC767125), alisertib (NSC759677), peposertib (NSC802822), gemcitabine (NSC613327), 5-fluorouracil (NSC19893), SN-38 (NSC673596), oxaliplatin (NSC266046), paclitaxel (NSC125973), and doxorubicin (NSC123127), were obtained from the National Cancer Institute (NCI) Developmental Therapeutics Program Chemical Repository. The FDA-approved anticancer drug set is available from the Developmental Therapeutics Program at https://dtp.cancer.gov/organization/dscb/obtaining/available plates.htm. […] The stock solutions were prepared in dimethyl sulfoxide (DMSO, Sigma-Aldrich, St. Louis, MO, cat. D2650), except for the platinum complexes which were prepared in saline (Quality Biological, Gaithersburg, MD, cat. 114-055-101), at 800-fold the tested concentration and stored at -70 degrees C prior to their use. All drugs and investigational agents were tested over a range starting from a high concentration at or near the clinical Cmax and decreasing in half-log increments. If the clinical Cmax for an agent had not been determined, the highest concentration tested was 10 microM.
Cell Culture. All cells were maintained in an incubator at 37 degrees C and 5% CO2 with 95% humidity. The PDC lines were cultured according to standard operating procedures established by the NCI PDMR. Briefly, all PDCs were thawed and cultured in Matrigel-coated flasks prepared with a working solution of 1X Ham's F-12 nutrient mix, without supplementation (Invitrogen, Waltham, MA, cat. 11765054), 100 U/mL penicillin-streptomycin (Invitrogen, cat. 15140122), and 2.5% Matrigel (Corning Inc., Corning, NY, cat. 354248) for the first three passages. The 947758-054-R-J2-PDC line was cultured in 6B/Colon 1A media, which includes advanced DMEM/F-12 (Thermo Fisher Scientific, cat. 12634028), 10 mM HEPES (Thermo Fisher Scientific, cat. 15630080), 1X GlutaMAX supplement (Thermo Fisher Scientific, cat. 35050061), 0.1 mg/mL primocin (InvivoGen, cat. ant-pm-2), 10% defined fetal bovine serum, heat inactivated (HyClone Laboratories Inc., cat. SH30070.03HI), 1.25 mM N-Acetyl-L-cysteine (Sigma-Aldrich, cat. A9165), 10 mM nicotinamide (Sigma-Aldrich, cat. N0636), 1X B-27 supplement (Thermo Fisher Scientific, cat. 17504044), 1X N-2 supplement (Thermo Fisher Scientific, cat. 17502048), and 10 microM Y-27632 dihydrochloride (Tocris Bioscience, cat. 1254). The 876862-298-R-J1-PDC was cultured in 6E media, which includes all 6B/Colon 1A media components plus 50% L-WRN conditioned media (ATCC, cat. CRL-3276), 50 ng/mL recombinant human EGF recombinant protein (hEGF; Thermo Fisher Scientific, cat. PHG0311), 10 ng/mL recombinant human fibroblast growth factor 10 (hGFG-10; PeproTech, cat. 100-26), 1 ng/mL recombinant human fibroblast growth factor 2 (hFGF-2; PeproTech, cat. 100-18B), and 1 µM prostaglandin E2 (PGE2; Tocris, cat. 2296). The 227483-062-R1-J1-PDC line was cultured in Panc media, containing all 6E components except hFGF-2, with the addition of 500 nM SB-431542 (Selleckchem, cat. S1067) and 10 nM gastrin (Tocris, cat. 3006). […]

pIC50: −log10 of the molar value. “And” between values parts separate entries of the source, which are not always exact repeats. Equal values may be shown once. A value given as a limit tells only on which side of the number the result lay.
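Note: spheroids exposed to drugs for seven days before readout.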
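Throughout, for viability, T/C: 100% = DMSO vehicle control wells.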

Usually viability, T/C stands for the ratio of treated to control. The term pIC50 denotes the IC50 on a negative log10 scale, so that one unit is a factor of ten. `CC(=O)O[C@H]1C(=O)[C@@]2(C)[C@H]([C@H](OC(=O)c3ccccc3)[C@]3(O)C[C@H](OC(=O)[C@H](O)[C@@H](NC(=O)c4ccccc4)c4ccccc4)C(C)=C1C3(C)C)[C@]1(OC(C)=O)CO[C@@H]1C[C@@H]2O`: the viability, T/C by setting is: (compound 0.0316 µM) 7.73% and 9%; (compound 0.1 µM) 9.43% and 8.68%; (compound 0.316 µM) 9.33% and 9.1%; (compound 1 µM) 8.48% and 7.37%; (compound 3.16 µM) 8.93% and 7.1%; (compound 10 µM) 9.93% and 9.02%. Moreover, the pIC50 (curve of compound) is > 7.50.

As a reminder, the IC50 is the concentration that gives 50% inhibition. On to `CN1CCN(c2cc(C(=O)Nc3cc4cc(-c5cnn(C)c5)ccc4cn3)ccn2)CC1`, for which the viability, T/C is, setting by setting: (compound 0.1 µM) 94% [middle of 12 runs]; (compound 0.316 µM) 9.83% [middle of 12 runs]; (compound 1 µM) 0.34% [middle of 11 runs]; (compound 3.16 µM) 0.57% [middle of 11 runs]; (compound 10 µM) 0.34% [middle of 11 runs]. The IC50 (run of 07/31/2023) is 181 nM [middle of 9 runs].

Turning to `CNC(=O)c1ccc(Nc2nc(OC3CCCC3)c3c(-c4ccc5nc(C)oc5c4)c[nH]c3n2)c(OC)c1`, the viability, T/C was 23.8% [middle of 12 runs] (compound 0.316 µM), 22.5% [middle of 12 runs] (compound 1 µM), 21.2% [middle of 12 runs] (compound 3.16 µM) and 20.1% [middle of 11 runs] (compound 10 µM). The IC50 (run of 08/01/2023) is 142 nM [middle of 11 runs].

As to `COc1ccc([C@@H](O)c2cc(-c3ncnc4cc(N5CCOCC5)ccc34)c(F)cc2Cl)nn1`, the viability, T/C (compound 0.0316 µM) was 95.2% and 115%; the viability, T/C (compound 0.1 µM) was 98.5% and 95.4%; the viability, T/C (compound 0.316 µM) was 105% and 107%; the viability, T/C (compound 1 µM) is 103% and 85.6%; the viability, T/C (compound 3.16 µM) is 64.8% and 64.9%; the viability, T/C (compound 10 µM) is 35.1% and 26.4%. Besides, for the setting “curve of compound”, the pIC50 is 5.25 and 5.31.

Consider `COc1cccc2c1C(=O)c1c(O)c3c(c(O)c1C2=O)CC(O)(C(=O)CO)CC3OC1CC(N)C(O)C(C)O1` (stereo not given), for which the viability, T/C (compound 0.0316 µM) is 15.1% and 13.7%; the viability, T/C (compound 0.1 µM) was 2.91% and 1.62%; the viability, T/C (compound 0.316 µM) is 1.09% and 1.08%; the viability, T/C (compound 1 µM) was 1.18% and 0.23%; the viability, T/C (compound 3.16 µM) was 0.29% and 0.47%; the viability, T/C (compound 10 µM) was 0.19% and 0.46%. Under “curve of compound”, the pIC50 was > 7.50.

In the case of `Nc1ccn(C2OC(CO)C(O)C2(F)F)c(=O)n1` (stereo not given), the viability, T/C by setting is: (compound 0.0316 µM) 26.9% and 25.7%; (compound 0.1 µM) 16.5% and 10.8%; (compound 0.316 µM) 17.8% and 15.2%; (compound 1 µM) 15.7% and 11.5%; (compound 3.16 µM) 11.1% and 9.45%; (compound 10 µM) 7.67% and 6.64%. Also, where the note is “curve of compound”, the pIC50 is > 7.50.

On to `O=C(c1cc(Cc2n[nH]c(=O)c3ccccc23)ccc1F)N1CCN(C(=O)C2CC2)CC1`, for which the viability, T/C by setting is: (compound 0.0316 µM) 118% and 121%; (compound 0.1 µM) 91.3% and 115%; (compound 0.316 µM) 110% and 104%; (compound 1 µM) 112% and 120%; (compound 3.16 µM) 119% and 130%; (compound 10 µM) 101% and 138%. Besides, under “curve of compound”, the pIC50 was < 5.00.

`O=c1[nH]cc(F)c(=O)[nH]1`: the viability, T/C was 109% and 162% (compound 0.0316 µM); 103% and 123% (compound 0.1 µM); 86.9% and 104% (compound 0.316 µM); 60.5% and 74.4% (compound 1 µM); 51.7% and 56% (compound 3.16 µM); 40% and 45.8% (compound 10 µM). Under “curve of compound”, the pIC50 is 5.57 and 5.20.

For `CCCS(=O)(=O)Nc1ccc(F)c(C(=O)c2c[nH]c3ncc(-c4ccc(Cl)cc4)cc23)c1F` + CN1CCN(c2cc(C(=O)Nc3cc4cc(-c5cnn(C)c5)ccc4cn3)ccn2)CC1, the negative-log IC50 (pIC50) reads like this: (curve of first compound, second compound 0.0316 µM) 5.32; (curve of first compound, second compound 0.1 µM) 5.30; (curve of first compound, second compound 0.316 µM) > 7.50; (curve of first compound, second compound 1 µM) > 7.50; (curve of first compound, second compound 3.16 µM) > 7.50; (curve of first compound, second compound 10 µM) > 7.50. The viability, T/C by setting is: (second compound 0.0316 µM, first compound 0.0316 µM) 83.9%; (second compound 0.0316 µM, first compound 0.1 µM) 88.1%; (second compound 0.0316 µM, first compound 0.316 µM) 103%; (second compound 0.0316 µM, first compound 1 µM) 106%; (second compound 0.0316 µM, first compound 3.16 µM) 76.5%; (second compound 0.0316 µM, first compound 10 µM) 3.42%. Besides, the viability, T/C runs as follows: (second compound 0.1 µM, first compound 0.0316 µM) 74.2%; (second compound 0.1 µM, first compound 0.1 µM) 85.5%; (second compound 0.1 µM, first compound 0.316 µM) 87.9%; (second compound 0.1 µM, first compound 1 µM) 86.5%; (second compound 0.1 µM, first compound 3.16 µM) 81.8%; (second compound 0.1 µM, first compound 10 µM) 2.76%. The viability, T/C is 6.38% (second compound 0.316 µM, first compound 0.0316 µM); 8.19% (second compound 0.316 µM, first compound 0.1 µM); 9.52% (second compound 0.316 µM, first compound 0.316 µM); 7.73% (second compound 0.316 µM, first compound 1 µM); 6.35% (second compound 0.316 µM, first compound 3.16 µM); 1.15% (second compound 0.316 µM, first compound 10 µM). Besides, the viability, T/C is 0.16% (second compound 1 µM, first compound 0.0316 µM); 0.18% (second compound 1 µM, first compound 0.1 µM); 0.46% (second compound 1 µM, first compound 0.316 µM); 0.19% (second compound 1 µM, first compound 1 µM); 0.19% (second compound 1 µM, first compound 3.16 µM); 0.08% (second compound 1 µM, first compound 10 µM). The viability, T/C (second compound 3.16 µM, first compound 0.0316 µM) is 0.34%; the viability, T/C (second compound 3.16 µM, first compound 0.1 µM) was 0.68%; the viability, T/C (second compound 3.16 µM, first compound 0.316 µM) is 0.32%; the viability, T/C (second compound 3.16 µM, first compound 1 µM) is 0.46%; the viability, T/C (second compound 3.16 µM, first compound 3.16 µM) is 1.09%; the viability, T/C (second compound 3.16 µM, first compound 10 µM) was 0.77%. Besides, the viability, T/C (second compound 10 µM, first compound 0.0316 µM) is 0.23%; the viability, T/C (second compound 10 µM, first compound 0.1 µM) is 0.51%; the viability, T/C (second compound 10 µM, first compound 0.316 µM) is 0.21%; the viability, T/C (second compound 10 µM, first compound 1 µM) was 0.35%; the viability, T/C (second compound 10 µM, first compound 3.16 µM) was 0.5%; the viability, T/C (second compound 10 µM, first compound 10 µM) was 0.29%.

(Values after PubChem BioAssay AID2060609 (Molecular Pharmacology Branch, DTP, NCI, 2025).)
